Results as given in publication PMC4904262 (ACS Medicinal Chemistry Letters, 2016).

Columns and labels:
TIE2(R849W) = TIE2(R849W) (Homo sapiens, UniProt Q02763, R849W); details: 1 µM, ATP at Km
cMET (D1246N) = cMET (D1246N) (Homo sapiens, UniProt P08581, D1228N); details: 1 µM, ATP at Km
EGFR(T790M,L858R) = EGFR(T790M,L858R) (Homo sapiens, UniProt P00533, L858R/T790M); details: 1 µM, ATP at Km
FGFR2(N549H) = FGFR2(N549H) (Homo sapiens, UniProt P21802, N549H); details: 1 µM, ATP at Km
CHK2(I157T) = CHK2(I157T) (Homo sapiens, UniProt O96017, I157T); details: 1 µM, ATP at Km
PI3 KINASE (P65A) = details: 1 µM, ATP at Km
ABL(Y253F) = ABL(Y253F) (Homo sapiens, UniProt P00519, Y253F); details: 1 µM, ATP at Km
PI3 KINASE (E542K/P85A) = PI3 KINASE (E542K/P85A) (Homo sapiens, UniProt P42336, E542K); details: PI3 KINASE (E542K/P85A) (first listing); 1 µM; ATP at Km
RET(V804M) = RET(V804M) (Homo sapiens, UniProt P07949, V804M); details: 1 µM, ATP at Km
cMET (D1246H) = cMET (D1246H) (Homo sapiens, UniProt P08581, D1228H); details: 1 µM, ATP at Km
cMET (Y1248H) = cMET (Y1248H) (Homo sapiens, UniProt P08581, Y1230H); details: 1 µM, ATP at Km
[…](D842V) = […](D842V) (Homo sapiens, UniProt P16234, D842V); details: 1 µM, ATP at Km
RET (V804L) = RET (V804L) (Homo sapiens, UniProt P07949, V804L); details: 1 µM, ATP at Km
ABL(T315I) = ABL(T315I) (Homo sapiens, UniProt P00519, T315I); details: 1 µM, ATP at Km
CKIT(D816V) = CKIT(D816V) (Homo sapiens, UniProt P10721, D816V); details: 1 µM, ATP at Km
[…](V561D) = […](V561D) (Homo sapiens, UniProt P16234, V561D); details: 1 µM, ATP at Km
CKIT(V654A) = CKIT(V654A) (Homo sapiens, UniProt P10721, V654A); details: 1 µM, ATP at Km
FMS(Y969C) = FMS(Y969C) (Homo sapiens, UniProt P07333, Y969C); details: 1 µM, ATP at Km
BTK(R28H) = BTK(R28H) (Homo sapiens, UniProt Q06187, R28H); details: 1 µM, ATP at Km
FGFR1(V561M) = FGFR1(V561M) (Homo sapiens, UniProt P11362, V561M); details: 1 µM, ATP at Km
ABL (H396P) = ABL (H396P) (Homo sapiens, UniProt P00519, H396P); details: 1 µM, ATP at Km
MAPKAP-K3 = MAPKAP-K3 (Homo sapiens, UniProt Q16644); details: 1 µM, ATP at Km
PKA = PKA (Homo sapiens, UniProt P17612); details: 1 µM, ATP at Km
in vitro [1] = details: mouse, microsomes
MAPKAP-K2 = MAPKAP-K2 (Homo sapiens, UniProt P49137); details: 1 µM, ATP at Km
aldehyde oxidase = aldehyde oxidase (Homo sapiens, UniProt Q06278)
in vitro [2] = details: mouse, plasma
phospho-STAT1^SER727 = details: single 5 mg/kg po dose; SW620 xenograft

Sequence of aldehyde oxidase (Q06278 whole entry): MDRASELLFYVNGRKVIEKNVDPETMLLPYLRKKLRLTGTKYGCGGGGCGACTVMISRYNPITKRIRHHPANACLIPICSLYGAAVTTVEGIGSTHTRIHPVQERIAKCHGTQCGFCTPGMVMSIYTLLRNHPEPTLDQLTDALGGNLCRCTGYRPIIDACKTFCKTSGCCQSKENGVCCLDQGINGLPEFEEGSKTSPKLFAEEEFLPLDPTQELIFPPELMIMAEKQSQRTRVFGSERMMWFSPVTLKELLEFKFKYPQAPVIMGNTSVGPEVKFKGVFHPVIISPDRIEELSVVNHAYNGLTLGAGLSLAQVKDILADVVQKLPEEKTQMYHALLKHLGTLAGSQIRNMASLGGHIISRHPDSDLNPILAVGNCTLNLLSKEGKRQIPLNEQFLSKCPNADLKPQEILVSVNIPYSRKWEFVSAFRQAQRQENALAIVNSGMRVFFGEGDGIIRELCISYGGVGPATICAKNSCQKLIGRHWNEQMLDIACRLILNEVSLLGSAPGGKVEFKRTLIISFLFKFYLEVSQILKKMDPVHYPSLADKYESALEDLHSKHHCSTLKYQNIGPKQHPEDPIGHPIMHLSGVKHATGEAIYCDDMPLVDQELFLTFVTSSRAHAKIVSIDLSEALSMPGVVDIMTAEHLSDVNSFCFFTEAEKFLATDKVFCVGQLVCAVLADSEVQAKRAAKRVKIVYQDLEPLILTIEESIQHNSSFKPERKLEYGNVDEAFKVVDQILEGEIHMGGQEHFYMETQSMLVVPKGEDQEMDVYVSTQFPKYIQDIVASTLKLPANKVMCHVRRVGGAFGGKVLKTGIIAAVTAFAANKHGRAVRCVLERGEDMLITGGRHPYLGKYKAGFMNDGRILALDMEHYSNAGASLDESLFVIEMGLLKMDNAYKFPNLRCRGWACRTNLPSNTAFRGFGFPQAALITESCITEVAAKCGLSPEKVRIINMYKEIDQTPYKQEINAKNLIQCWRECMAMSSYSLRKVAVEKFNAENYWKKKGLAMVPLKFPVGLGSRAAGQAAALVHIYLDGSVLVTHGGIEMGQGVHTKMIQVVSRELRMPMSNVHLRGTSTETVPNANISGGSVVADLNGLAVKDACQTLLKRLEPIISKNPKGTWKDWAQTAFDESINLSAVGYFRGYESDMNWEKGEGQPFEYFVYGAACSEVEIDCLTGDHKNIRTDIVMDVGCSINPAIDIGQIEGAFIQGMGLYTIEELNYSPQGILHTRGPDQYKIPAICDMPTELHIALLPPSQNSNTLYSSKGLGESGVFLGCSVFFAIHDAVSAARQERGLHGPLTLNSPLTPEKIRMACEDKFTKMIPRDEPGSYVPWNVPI
Sequence of RET (V804L) (P07949 29-1114 V804L): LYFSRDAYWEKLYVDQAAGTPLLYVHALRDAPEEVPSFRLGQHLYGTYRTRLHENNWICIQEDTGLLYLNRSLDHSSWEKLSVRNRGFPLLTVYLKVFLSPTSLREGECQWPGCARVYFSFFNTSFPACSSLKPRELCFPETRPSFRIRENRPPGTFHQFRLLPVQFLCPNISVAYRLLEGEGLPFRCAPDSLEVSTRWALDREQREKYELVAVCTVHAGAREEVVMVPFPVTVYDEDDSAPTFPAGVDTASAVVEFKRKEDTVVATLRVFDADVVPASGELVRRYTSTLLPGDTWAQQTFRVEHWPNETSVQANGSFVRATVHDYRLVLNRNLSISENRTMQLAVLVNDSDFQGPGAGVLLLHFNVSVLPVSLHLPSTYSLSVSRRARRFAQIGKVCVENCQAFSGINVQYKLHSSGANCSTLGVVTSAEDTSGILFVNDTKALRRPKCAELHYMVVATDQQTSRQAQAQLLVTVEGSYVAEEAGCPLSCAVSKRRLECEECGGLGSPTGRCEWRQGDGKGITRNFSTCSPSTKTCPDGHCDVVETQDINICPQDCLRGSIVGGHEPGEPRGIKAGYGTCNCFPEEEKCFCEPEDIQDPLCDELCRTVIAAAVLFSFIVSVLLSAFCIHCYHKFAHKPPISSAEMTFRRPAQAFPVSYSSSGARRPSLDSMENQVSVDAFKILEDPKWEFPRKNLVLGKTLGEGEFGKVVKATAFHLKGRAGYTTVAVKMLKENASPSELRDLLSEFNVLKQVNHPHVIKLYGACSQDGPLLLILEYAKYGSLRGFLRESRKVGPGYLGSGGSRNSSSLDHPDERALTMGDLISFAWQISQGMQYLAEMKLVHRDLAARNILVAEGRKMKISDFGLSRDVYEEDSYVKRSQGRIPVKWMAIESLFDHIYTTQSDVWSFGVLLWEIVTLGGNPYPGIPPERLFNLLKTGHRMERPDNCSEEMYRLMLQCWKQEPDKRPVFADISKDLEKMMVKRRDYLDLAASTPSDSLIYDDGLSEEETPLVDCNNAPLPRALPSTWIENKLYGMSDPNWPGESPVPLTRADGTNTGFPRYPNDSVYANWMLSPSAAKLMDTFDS
Sequence of FGFR2(N549H) (P21802 22-821 N549H): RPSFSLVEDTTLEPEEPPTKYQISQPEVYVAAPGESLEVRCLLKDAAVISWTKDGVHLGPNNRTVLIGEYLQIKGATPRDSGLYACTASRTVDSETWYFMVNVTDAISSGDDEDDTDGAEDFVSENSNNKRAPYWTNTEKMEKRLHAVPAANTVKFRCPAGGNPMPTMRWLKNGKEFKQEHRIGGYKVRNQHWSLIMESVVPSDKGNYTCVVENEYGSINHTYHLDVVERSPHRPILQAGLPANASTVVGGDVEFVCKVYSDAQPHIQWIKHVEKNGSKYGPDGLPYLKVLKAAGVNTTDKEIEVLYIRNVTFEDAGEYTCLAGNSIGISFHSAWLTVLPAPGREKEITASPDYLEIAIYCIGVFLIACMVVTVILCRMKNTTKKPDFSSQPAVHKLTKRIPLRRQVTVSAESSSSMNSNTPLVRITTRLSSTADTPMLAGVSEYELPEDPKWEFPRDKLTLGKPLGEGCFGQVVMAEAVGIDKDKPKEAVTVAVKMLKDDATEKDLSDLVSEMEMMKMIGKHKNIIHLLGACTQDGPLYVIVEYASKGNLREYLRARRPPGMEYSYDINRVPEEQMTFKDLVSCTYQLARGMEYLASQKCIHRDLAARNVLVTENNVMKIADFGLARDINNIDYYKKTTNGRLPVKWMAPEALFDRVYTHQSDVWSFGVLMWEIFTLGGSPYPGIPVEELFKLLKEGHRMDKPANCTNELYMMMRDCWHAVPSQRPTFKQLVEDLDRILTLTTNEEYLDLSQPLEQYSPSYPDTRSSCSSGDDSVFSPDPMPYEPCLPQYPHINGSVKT
Sequence of MAPKAP-K3 (Q16644 whole entry): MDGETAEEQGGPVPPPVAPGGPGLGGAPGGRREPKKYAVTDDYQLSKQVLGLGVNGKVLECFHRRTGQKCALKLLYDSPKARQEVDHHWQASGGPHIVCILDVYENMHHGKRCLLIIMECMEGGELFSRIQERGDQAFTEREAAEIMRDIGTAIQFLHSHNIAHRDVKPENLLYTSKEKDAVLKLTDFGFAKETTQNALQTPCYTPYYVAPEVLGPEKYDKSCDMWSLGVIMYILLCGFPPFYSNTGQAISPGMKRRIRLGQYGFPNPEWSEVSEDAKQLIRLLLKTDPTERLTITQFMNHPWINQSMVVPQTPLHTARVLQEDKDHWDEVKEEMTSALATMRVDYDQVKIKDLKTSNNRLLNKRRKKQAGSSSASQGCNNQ
Sequence of FGFR1(V561M) (P11362 22-822 V561M): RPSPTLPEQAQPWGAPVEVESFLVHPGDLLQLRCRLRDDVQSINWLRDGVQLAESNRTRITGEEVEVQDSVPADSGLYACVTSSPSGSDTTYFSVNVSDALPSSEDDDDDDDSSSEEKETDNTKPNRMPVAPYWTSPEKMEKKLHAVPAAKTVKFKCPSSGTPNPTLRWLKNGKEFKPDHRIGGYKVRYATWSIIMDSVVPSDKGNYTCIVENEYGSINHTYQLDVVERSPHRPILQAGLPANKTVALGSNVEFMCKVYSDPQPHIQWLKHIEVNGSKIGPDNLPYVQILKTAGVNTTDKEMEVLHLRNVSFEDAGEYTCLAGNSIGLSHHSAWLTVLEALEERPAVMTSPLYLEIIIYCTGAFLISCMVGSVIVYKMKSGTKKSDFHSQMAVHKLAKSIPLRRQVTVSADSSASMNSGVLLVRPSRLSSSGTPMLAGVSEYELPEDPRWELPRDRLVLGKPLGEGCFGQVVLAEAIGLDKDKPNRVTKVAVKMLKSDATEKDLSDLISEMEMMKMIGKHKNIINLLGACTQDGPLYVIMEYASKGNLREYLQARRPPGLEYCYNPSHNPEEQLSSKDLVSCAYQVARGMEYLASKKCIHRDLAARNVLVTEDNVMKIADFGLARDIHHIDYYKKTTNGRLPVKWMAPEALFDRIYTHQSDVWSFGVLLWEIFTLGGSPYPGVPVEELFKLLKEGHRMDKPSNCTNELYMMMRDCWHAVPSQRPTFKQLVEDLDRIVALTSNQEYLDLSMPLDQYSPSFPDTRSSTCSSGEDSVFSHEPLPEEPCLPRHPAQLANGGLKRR
Sequence of CHK2(I157T) (O96017 whole entry I157T): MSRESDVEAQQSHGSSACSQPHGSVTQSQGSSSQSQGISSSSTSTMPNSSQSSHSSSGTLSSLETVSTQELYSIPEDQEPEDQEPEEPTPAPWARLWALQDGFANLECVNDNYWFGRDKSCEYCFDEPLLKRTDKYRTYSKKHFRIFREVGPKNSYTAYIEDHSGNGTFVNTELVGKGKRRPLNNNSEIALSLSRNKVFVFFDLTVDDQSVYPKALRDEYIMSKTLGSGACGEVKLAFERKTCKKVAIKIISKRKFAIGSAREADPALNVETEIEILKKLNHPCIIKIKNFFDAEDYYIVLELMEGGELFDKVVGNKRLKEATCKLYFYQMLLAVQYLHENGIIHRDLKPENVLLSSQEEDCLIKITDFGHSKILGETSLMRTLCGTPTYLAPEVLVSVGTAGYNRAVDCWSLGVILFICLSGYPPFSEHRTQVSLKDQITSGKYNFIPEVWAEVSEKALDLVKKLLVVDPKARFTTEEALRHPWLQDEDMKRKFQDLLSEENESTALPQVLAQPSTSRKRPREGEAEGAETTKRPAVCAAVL
Sequence of RET(V804M) (P07949 29-1114 V804M): as the sequence (P07949 29-1114 V804L) above, with L776M counted along it

## COC1CN(C(=O)c2ccc3c(N)ncc(-c4ccc(-c5cnn(C)c5)cc4)c3c2)C1 [Compound 59]
TIE2(R849W)
  percentage effect: -12%
cMET (D1246N)
  percentage effect: 3%
EGFR(T790M,L858R)
  percentage effect: -2%
FGFR2(N549H)
  percentage effect: -14%
CHK2(I157T)
  percentage effect: -9%
PI3 KINASE (P65A)
  percentage effect: -4%
ABL(Y253F)
  percentage effect: -6%
PI3 KINASE (E542K/P85A)
  percentage effect: -3%
RET(V804M)
  percentage effect: 7%
cMET (D1246H)
  percentage effect: 1%
cMET (Y1248H)
  percentage effect: 6%
[…](D842V)
  percentage effect: 1%
RET (V804L)
  percentage effect: -9%
ABL(T315I)
  percentage effect: 5%
CKIT(D816V)
  percentage effect: -3%
[…](V561D)
  percentage effect: -9%
CKIT(V654A)
  percentage effect: 6%
FMS(Y969C)
  percentage effect: -31%
BTK(R28H)
  percentage effect: -12%
FGFR1(V561M)
  percentage effect: -6%
ABL (H396P)
  percentage effect: 5%

## COC1CN(C(=O)c2ccc3c(N)ncc(-c4ccc(-c5cnn(C)c5)cc4)c3n2)C1 [Compound 51]
MAPKAP-K3
  percentage effect: -15%
PKA
  percentage effect: -1%
In vitro [1]
  microsomal CLint at 1 µM: 52 µL/min/mg
MAPKAP-K2
  percentage effect: 6%
Aldehyde oxidase
  AO substrate (Enzyme assay): No
In vitro [2]
  fraction unbound: 0.038
phospho-STAT1^SER727
  inhibition of phospho-STAT1^SER727 in tumor xenograft: time-dependent inhibition of phospho-STAT1^SER727
